The source of these data is patent US9981942B2, “Piperidine derivatives having multimodal activity against pain” (LABORATORIOS DEL DR. ESTEVE S.A., priority 2013, dated 2018).

A value given as a limit tells only on which side of the number the result lay.

One experiment has as its system σ1 receptor and the μ-opiod receptor. The experiment in a line: μ and σ1 dual binding: combined class from the Ki of both radioligand assays. More on the design: species or system human; key to μ and σ1 dual binding: +: Both Ki-μ and Ki-σ1>=500 nM; ++: One Ki<500 nM while the other Ki is >=500 nM; +++: Both Ki-μ and Ki-σ1<500 nM; ++++: Both Ki-μ and Ki-σ1<100 nM. Particulars: combined class for Ki-μ and Ki-σ1; transfected HEK-293 membranes (σ1), transfected CHO-K1 cell membranes (μ). An outline of the steps: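 Classes combine both Ki values, split at 500 nM and 100 nM. Human μ-opioid binding used 1 nM [3H]-DAMGO on CHO-K1 membranes (27 °C, 60 min, pH 7.4, naloxone 10 μM for NSB); human σ1 used 5 nM [3H](+)-pentazocine on HEK-293 membranes (37 °C, 120 min, pH 8, haloperidol 10 μM for NSB).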
As to `Oc1cccc(C2CCN(Cc3cn(Cc4ncccc4O)nn3)CC2)c1` [Example 156, 2-((4-((4-(3-hydroxyphenyl)piperidin-1-yl)methyl)-1H-1,2,3-triazol-1-yl)methyl)pyridin-3-ol], the “μ and σ1 dual binding” value is on record as “++”.

Regarding `COc1cccnc1Cn1cc(CN2CCC(c3cccc(O)c3)CC2)nn1` [Example 158, 3-(1-((1-((3-methoxypyridin-2-yl)methyl)-1H-1,2,3-triazol-4-yl)methyl)piperidin-4-yl)phenol], the “μ and σ1 dual binding” value is reported as “++”.

Turning to `CS(=O)(=O)Nc1cccc(C2CCN(Cc3cnn([C@@H]4c5ccccc5C[C@H]4O)c3)CC2)c1` [Example 166, N-(3-(1-((1-((1R,2R)-2-hydroxy-2,3-dihydro-1H-inden-1-yl)-1H-pyrazol-4-yl)methyl)piperidin-4-yl)phenyl)methanesulfonamide], the “μ and σ1 dual binding” value is listed as “++”.

With `CC(C)S(=O)(=O)Nc1cccc([C@@H]2CCN(Cc3cnn(-c4ccccn4)c3)C[C@@H]2O)c1` [Example 169, N-(3-((3R,4S)-3-hydroxy-1-((1-(pyridin-2-yl)-1H-pyrazol-4-yl)methyl)piperidin-4-yl)phenyl)propane-2-sulfonamide], the “μ and σ1 dual binding” value is on record as “++”.

Staying with this experiment, now noted: transfected HEK-293 membranes (σ1), transfected CHO-K1 cell membranes (μ).
As to `Oc1cccc(C2CCN(Cc3cn(-c4ccc(F)cc4F)nn3)CC2)c1` [Example 155, 3-(1-((1-(2,4-difluorophenyl)-1H-1,2,3-triazol-4-yl)methyl)piperidin-4-yl)phenol], the Ki range for both μ and σ1 (dual-binding class) was under 100 nM.

For the compound `Oc1cccc(C2CCN(Cc3cn(-c4cc(C(F)(F)F)ccn4)nn3)CC2)c1` [Example 157, 3-(1-((1-(4-(trifluoromethyl)pyridin-2-yl)-1H-1,2,3-triazol-4-yl)methyl)piperidin-4-yl)phenol], the Ki range for both μ and σ1 (dual-binding class) is under 500 nM.

Consider `Oc1ccc(Cn2cc(CN3CCC(c4cccc(O)c4)CC3)nn2)nc1` [Example 159, 6-((4-((4-(3-hydroxyphenyl)piperidin-1-yl)methyl)-1H-1,2,3-triazol-1-yl)methyl)pyridin-3-ol], for which the Ki range for both μ and σ1 (dual-binding class) was at least 500 nM.

`Oc1cccc(C2CCN(Cc3cn(Cc4cc(C(F)(F)F)ccn4)nn3)CC2)c1` [Example 160, 3-(1-((1-((4-(trifluoromethyl)pyridin-2-yl)methyl)-1H-1,2,3-triazol-4-yl)methyl)piperidin-4-yl)phenol]: the Ki range for both μ and σ1 (dual-binding class) was under 100 nM.

Turning to `Oc1cccc(C2CCN(Cc3cn(-c4ncccc4Cl)nn3)CC2)c1` [Example 161, 3-(1-((1-(3-chloropyridin-2-yl)-1H-1,2,3-triazol-4-yl)methyl)piperidin-4-yl)phenol], the Ki range for both μ and σ1 (dual-binding class) is under 500 nM.

With `Oc1cccc(C2CCN(CCc3cn(-c4ccccc4)nn3)CC2)c1` [Example 162, 3-(1-(2-(1-phenyl-1H-1,2,3-triazol-4-yl)ethyl)piperidin-4-yl)phenol], the Ki range for both μ and σ1 (dual-binding class) was under 100 nM.

Regarding `CS(=O)(=O)Nc1cccc(C2CCN(Cc3cnn(-c4ccccc4)c3)CC2)c1` [Example 163, N-(3-(1-((1-phenyl-1H-pyrazol-4-yl)methyl)piperidin-4-yl)phenyl)methanesulfonamide], the Ki range for both μ and σ1 (dual-binding class) is under 100 nM.

On to `Oc1cccc(C2CCN(Cc3cnn(-c4ccccc4)c3)CC2)c1` [Example 164, 3-(1-((1-phenyl-1H-pyrazol-4-yl)methyl)piperidin-4-yl)phenol], for which the Ki range for both μ and σ1 (dual-binding class) was under 100 nM.

For `CS(=O)(=O)Nc1cccc([C@@H]2CCN(Cc3cnn(-c4ccccc4)c3)C[C@@H]2O)c1` [Example 165, N-(3-((3R,4S)-3-hydroxy-1-((1-phenyl-1H-pyrazol-4-yl)methyl)piperidin-4-yl)phenyl)methanesulfonamide], the Ki range for both μ and σ1 (dual-binding class) was under 500 nM.

Consider `CC(C)S(=O)(=O)Nc1cccc(C2CCN(Cc3cnn(Cc4ccccn4)c3)CC2)c1` [Example 167, N-(3-(1-((1-(pyridin-2-ylmethyl)-1H-pyrazol-4-yl)methyl)piperidin-4-yl)phenyl)propane-2-sulfonamide], for which the Ki range for both μ and σ1 (dual-binding class) was under 500 nM.
